15 molecules from patent US11154060B2, “Microbiocidal oxadiazole derivatives” (SYNGENTA PARTICIPATIONS AG, priority 2016, dated 2021) can be followed below.

Experiment [1] has as its system Puccinia recondita f. sp. tritici. As to the kind of experiment: Puccinia recondita f. sp. tritici / wheat / leaf disc curative (brown rust). The class given is in vivo. To be noted: foliar, wheat leaf segments cv. Kanzler, applied 1 day after inoculation, assessed 6-8 days after application, read-out: control of Puccinia recondita f. sp. tritici compared to untreated control. On the procedure: Leaf disks or leaf segments of various plant species are cut from plants grown in a greenhouse. The cut leaf disks or segments are placed in multiwell plates (24-well format) onto water agar. The leaf disks are sprayed with a test solution before (preventative) or after (curative) inoculation. Compounds to be tested are prepared as DMSO solutions (max. 10 mg/ml) which are diluted to the appropriate concentration with 0.025% Tween20 just before spraying. The inoculated leaf disks or segments are incubated under defined conditions (temperature, relative humidity, light, etc.) according to the respective test system. A single evaluation of disease level is carried out 3 to 14 days after inoculation, depending on the pathosystem. Percent disease control relative to the untreated check leaf disks or segments is then calculated. Wheat leaf segments cv. Kanzler are placed on agar in multiwell plates (24-well format). The leaf segments are inoculated with a spore suspension of the fungus. Plates are stored in darkness at 19° C. and 75% rh. The formulated test compound diluted in water is applied 1 day after inoculation. The leaf segments are incubated at 19° C. and 75% rh under a light regime of 12 h light/12 h darkness in a climate cabinet and the activity of a compound is assessed as percent disease control compared to untreated when an appropriate level of disease damage appears in untreated check leaf segments (6-8 days after application).

Experiment [2] has as its system Phakopsora pachyrhizi. As to the kind of experiment: Phakopsora pachyrhizi / soybean / leaf disc preventative (Asian soybean rust). The class given is in vivo. To be noted: foliar, soybean leaf disks, inoculated one day after application, assessed 12-14 days after application, read-out: control of Phakopsora pachyrhizi compared to untreated control. On the procedure: Leaf disks or leaf segments of various plant species are cut from plants grown in a greenhouse. The cut leaf disks or segments are placed in multiwell plates (24-well format) onto water agar. The leaf disks are sprayed with a test solution before (preventative) or after (curative) inoculation. Compounds to be tested are prepared as DMSO solutions (max. 10 mg/ml) which are diluted to the appropriate concentration with 0.025% Tween20 just before spraying. The inoculated leaf disks or segments are incubated under defined conditions (temperature, relative humidity, light, etc.) according to the respective test system. A single evaluation of disease level is carried out 3 to 14 days after inoculation, depending on the pathosystem. Percent disease control relative to the untreated check leaf disks or segments is then calculated. Soybean leaf disks are placed on water agar in multiwell plates (24-well format) and sprayed with the formulated test compound diluted in water. One day after application leaf discs are inoculated by spraying a spore suspension on the lower leaf surface. After an incubation period in a climate cabinet of 24-36 hours in darkness at 20° C. and 75% rh leaf disc are kept at 20° C. with 12 h light/12 h darkness and 75% rh. The activity of a compound is assessed as percent disease control compared to untreated when an appropriate level of disease damage appears in untreated check leaf disks (12-14 days after application).

The subject of experiment [3] is Glomerella lagenarium (Colletotrichum lagenarium). As to the kind of experiment: Glomerella lagenarium (Colletotrichum lagenarium) liquid culture / cucumber / preventative (anthracnose). The class given is cell-based. To be noted: Colletotrichum orbiculare, liquid culture in PDB, 24° C., 3-4 days after application, read-out: control of Glomerella lagenarium compared to untreated control (inhibition of growth, photometric). Here is the method: Mycelia fragments or conidia suspensions of a fungus prepared either freshly from liquid cultures of the fungus or from cryogenic storage, are directly mixed into nutrient broth. DMSO solutions of the test compound (max. 10 mg/ml) are diluted with 0.025% Tween20 by a factor of 50 and 10 μl of this solution is pipetted into a microtiter plate (96-well format). The nutrient broth containing the fungal spores/mycelia fragments is then added to give an end concentration of the tested compound. The test plates are incubated in the dark at 24° C. and 96% relative humidity. The inhibition of fungal growth is determined photometrically after 2 to 7 days, depending on the pathosystem, and percent antifungal activity relative to the untreated check is calculated. Conidia of the fungus from cryogenic storage are directly mixed into nutrient broth (PDB potato dextrose broth). After placing a (DMSO) solution of test compound into a microtiter plate (96-well format), the nutrient broth containing the fungal spores is added. The test plates are incubated at 24° C. and the inhibition of growth is measured photometrically 3-4 days after application.

The subject of experiment [4] is Uromyces viciae-fabae. As to the kind of experiment: Uromyces viciae-fabae / field bean / leaf disc preventative (faba-bean rust). The class given is in vivo. Particulars: foliar, 288 h, 100 ppm in the applied formulation, field bean leaf discs, inoculated two hours after application, 12 days after application, read-out: disease control compared to untreated control leaf discs. On the procedure: Leaf disks or leaf segments of various plant species are cut from plants grown in a greenhouse. The cut leaf disks or segments are placed in multiwell plates (24-well format) onto water agar. The leaf disks are sprayed with a test solution before (preventative) or after (curative) inoculation. Compounds to be tested are prepared as DMSO solutions (max. 10 mg/ml) which are diluted to the appropriate concentration with 0.025% Tween20 just before spraying. The inoculated leaf disks or segments are incubated under defined conditions (temperature, relative humidity, light, etc.) according to the respective test system. A single evaluation of disease level is carried out 3 to 14 days after inoculation, depending on the pathosystem. Percent disease control relative to the untreated check leaf disks or segments is then calculated. Field bean leaf discs are placed on water agar in multiwell plates (96-well format) and 10 μl of the formulated test compound diluted in acetone and a spreader pipetted onto the leaf disc. Two hours after application leaf discs are inoculated by spraying a spore suspension on the lower leaf surface. The leaf discs are incubated in a climate cabinet at 22° C. with 18 hour day and 70% relative humidity. The activity of a compound is assessed as percent disease control compared to untreated when an appropriate level of disease damage appears in untreated check leaf disks (12 days after application).

In experiment [5] the test system is Puccinia recondita f. sp. tritici. As to the kind of experiment: Puccinia recondita f. sp. tritici / wheat / leaf disc preventative (brown rust). The class given is in vivo. To be noted: foliar, wheat leaf segments cv. Kanzler, inoculated 1 day after application, assessed 7-9 days after application, read-out: control of Puccinia recondita f. sp. tritici compared to untreated control. Here is the method:
Leaf disks or leaf segments of various plant species are cut from plants grown in a greenhouse. The cut leaf disks or segments are placed in multiwell plates (24-well format) onto water agar. The leaf disks are sprayed with a test solution before (preventative) or after (curative) inoculation. Compounds to be tested are prepared as DMSO solutions (max. 10 mg/ml) which are diluted to the appropriate concentration with 0.025% Tween20 just before spraying. The inoculated leaf disks or segments are incubated under defined conditions (temperature, relative humidity, light, etc.) according to the respective test system. A single evaluation of disease level is carried out 3 to 14 days after inoculation, depending on the pathosystem. Percent disease control relative to the untreated check leaf disks or segments is then calculated. Wheat leaf segments cv. Kanzler are placed on agar in multiwell plates (24-well format) and sprayed with the formulated test compound diluted in water. The leaf disks are inoculated with a spore suspension of the fungus 1 day after application. The inoculated leaf segments are incubated at 19° C. and 75% rh under a light regime of 12 h light/12 h darkness in a climate cabinet and the activity of a compound is assessed as percent disease control compared to untreated when an appropriate level of disease damage appears in untreated check leaf segments (7-9 days after application).

Bounds are passed on as bounds.

A word on the inhibition: it is how much of the control response was suppressed.

Take `CON(CC1CC1)C(=O)Cc1ccc(-c2noc(C(F)(F)F)n2)cc1` [Compound 2.22, N-(cyclopropylmethyl)-N-methoxy-2-[4-[5-(trifluoromethyl)-1,2,4-oxadiazol-3-yl]phenyl]acetamide]: the pest or weed control at 200 ppm in experiment [1] and in experiment [2] was no less than 80% throughout. Further, in experiment [3], the inhibition at 20 ppm is no less than 80%.

On to `CON(C(=O)Cc1ccc(-c2noc(C(F)(F)F)n2)cc1)C(C)c1ccccc1` (stereo not drawn) [Compound 2.20, N-methoxy-N-(1-phenylethyl)-2-[4-[5-(trifluoromethyl)-1,2,4-oxadiazol-3-yl]phenyl]acetamide], for which the inhibition at 20 ppm in experiment [3] is no less than 80%.

`CON(C(=O)c1ccc(-c2noc(C(F)(F)F)n2)cc1F)C(C)CO` (stereo not drawn) [Compound 1.12, 2-fluoro-N-(2-hydroxy-1-methyl-ethyl)-N-methoxy-4-[5-(trifluoromethyl)-1,2,4-oxadiazol-3-yl]benzamide]: the pest or weed control at 200 ppm in experiment [1] was no less than 80%. In addition, in experiment [3], the inhibition at 20 ppm was no less than 80%. The pest or weed control at 100 ppm in experiment [4] is no less than 80%.

As for `COC(=O)C(C)N(OC)C(=O)c1ccc(-c2noc(C(F)(F)F)n2)cc1` (stereo not drawn) [Compound 2.9, methyl 2-[methoxy-[4-[5-(trifluoromethyl)-1,2,4-oxadiazol-3-yl]benzoyl]amino]propanoate], the pest or weed control at 200 ppm in experiment [1] was no less than 80%. Moreover, the inhibition at 20 ppm in experiment [3] is no less than 80%. Further, the pest or weed control at 100 ppm in experiment [4] is no less than 80%.

As for `CON(C(=O)Cc1ccc(-c2noc(C(F)(F)F)n2)c(F)c1)C(C)c1ccccc1` (stereo not drawn) [Compound 1.24, 2-[3-fluoro-4-[5-(trifluoromethyl)-1,2,4-oxadiazol-3-yl]phenyl]-N-methoxy-N-(1-phenylethyl)acetamide], in experiment [5], the pest or weed control at 200 ppm was no less than 80%. Besides, the inhibition at 20 ppm in experiment [3] is no less than 80%.

Take `CON(Cc1c(Cl)cc(Cl)cc1Cl)C(=O)c1ccc(-c2noc(C(F)(F)F)n2)cc1F` [Compound 1.3, 2-fluoro-N-methoxy-N-[(2,4,6-trichlorophenyl)methyl]-4-[5-(trifluoromethyl)-1,2,4-oxadiazol-3-yl]benzamide]: the pest or weed control at 100 ppm in experiment [4] is no less than 80%.

Turning to `COC(=O)C1(N(O)C(=O)c2ccc(-c3noc(C(F)(F)F)n3)cc2)CCN(OC)CC1` [Compound 2.1, methyl 4-[hydroxy-[4-[5-(trifluoromethyl)-1,2,4-oxadiazol-3-yl]benzoyl]amino]-1-methoxy-piperidine-4-carboxylate], the pest or weed control at 200 ppm in experiment [5] and in experiment [2] was no less than 80% each time. Further, the inhibition at 20 ppm in experiment [3] was no less than 80%. Besides, in experiment [4], the pest or weed control at 100 ppm is no less than 80%.

In the case of `O=C(Cc1ccc(-c2noc(C(F)(F)F)n2)cc1)N(O)CC1CC1C1CC1` (stereo not drawn) [Compound 2.26, N-[(2-cyclopropylcyclopropyl)methyl]-N-hydroxy-2-[4-[5-(trifluoromethyl)-1,2,4-oxadiazol-3-yl]phenyl]acetamide], the pest or weed control at 200 ppm in experiment [5] and in experiment [1] was no less than 80% throughout. Besides, in experiment [3], the inhibition at 20 ppm was no less than 80%.

For the molecule `CON(C(=O)Cc1ccc(-c2noc(C(F)(F)F)n2)cc1)C(C)C1CC1` (stereo not drawn) [Compound 2.21, N-(1-cyclopropylethyl)-N-methoxy-2-[4-[5-(trifluoromethyl)-1,2,4-oxadiazol-3-yl]phenyl]acetamide], the inhibition at 20 ppm in experiment [3] was no less than 80%.

For `CON(CC1CC1C1CC1)C(=O)Cc1ccc(-c2noc(C(F)(F)F)n2)cc1` (stereo not drawn) [Compound 2.25, N-[(2-cyclopropylcyclopropyl)methyl]-N-methoxy-2-[4-[5-(trifluoromethyl)-1,2,4-oxadiazol-3-yl]phenyl]acetamide], the inhibition at 20 ppm in experiment [3] was no less than 80%.

As to `CON(C(=O)Cc1ccc(-c2noc(C(F)(F)F)n2)cc1)C1COC1` [Compound 2.19, N-methoxy-N-(oxetan-3-yl)-2-[4-[5-(trifluoromethyl)-1,2,4-oxadiazol-3-yl]phenyl]acetamide], the pest or weed control at 200 ppm in experiment [5] and in experiment [1] was no less than 80% each time. Besides, the inhibition at 20 ppm in experiment [3] was no less than 80%.

For the molecule `CON(C)C(=O)Cc1ccc(-c2noc(C(F)(F)F)n2)c(F)c1` [Compound 1.18, 2-[3-fluoro-4-[5-(trifluoromethyl)-1,2,4-oxadiazol-3-yl]phenyl]-N-methoxy-N-methyl-acetamide], the pest or weed control at 200 ppm in experiment [5], in experiment [1] and in experiment [2] was no less than 80% throughout. Moreover, in experiment [3], the inhibition at 20 ppm is no less than 80%.

`CON(C(=O)Cc1ccc(-c2noc(C(F)(F)F)n2)c(F)c1)C(C)C1CC1` (stereo not drawn) [Compound 1.25, N-(1-cyclopropylethyl)-2-[3-fluoro-4-[5-(trifluoromethyl)-1,2,4-oxadiazol-3-yl]phenyl]-N-methoxy-acetamide]: the pest or weed control at 200 ppm in experiment [1] was no less than 80%. In experiment [3], the inhibition at 20 ppm was no less than 80%.

Turning to `COC(=O)[C@H](C)N(OC)C(=O)c1ccc(-c2noc(C(F)(F)F)n2)cc1` [Compound 2.3, methyl (2S)-2-[methoxy-[4-[5-(trifluoromethyl)-1,2,4-oxadiazol-3-yl]benzoyl]amino]propanoate], the pest or weed control at 200 ppm in experiment [1] was no less than 80%. Further, in experiment [3], the inhibition at 20 ppm is no less than 80%. In addition, in experiment [4], the pest or weed control at 100 ppm is no less than 80%.

In the case of `CON(C(=O)c1ccc(-c2noc(C(F)(F)F)n2)cc1F)C(C)COC1CCCCO1` (stereo not drawn) [Compound 1.9, 2-fluoro-N-methoxy-N-(1-methyl-2-tetrahydropyran-2-yloxy-ethyl)-4-[5-(trifluoromethyl)-1,2,4-oxadiazol-3-yl]benzamide], the inhibition at 20 ppm in experiment [3] was no less than 80%. In experiment [4], the pest or weed control at 100 ppm was no less than 80%.
